Assay results as given in patent US20050038058A1, “Novel compounds and methods for therapy” (Institute of Organic Chemistry and Biochemistry, priority 2001, published 2005).
Values after ≈ are worked out from the molar mass of the structure shown. Read-outs that look alike come from different tables or passages of the source.

Key:
Assay type in all cases: cell-based
HIV-1(IIIB) = assay: HIV-1(IIIB)-induced cytopathicity in MT-4 cell cultures; settings: Table 2; for EC50: Human immunodeficiency virus 1, IIIB, MT4
From the text: (§1) Viruses. The origins of MSV, HIV type 1 (HIV-1) (strain IIIB and Ba-L), HIV-2 (strain ROD) and FIV (strain Petaluma) have been described previously (Balzarini et al., AIDS 5: 21-28, 1991; De Clercq et al., Proc. Soc. Exp. Biol. Med. 137:590-594, 1971; Egberink et al., Proc. Natl. Acad. Sci. 87:3087-3091, 1990; Hartmann et al., Antiviral Chem. Chemother. 5:13-19, 1994; Popovic et al., Science 224:497-500, 1984). HIV-1(IIIB) and HIV-2(ROD) stocks were obtained from supernatants of virus-infected MT-4 cell cultures. HIV-1BaL was expanded in human primary M/M, whose supernatants were collected, filtered and stored at −80° C. before use. Characteristics of viral stocks used for this study were 2.1×10^8 HIV-RNA genomes/ml (corresponding to 35 ng of p24 antigen) and 5,000 tissue culture infectious doses 50% per ml (TCID50/ml) as assessed by virus titration in other primary M/M cultures. The isolation and characterization of the clinical HIV-1 isolates L1S, L6S and L6S/PMEA has been reported (Thormar et al., Proc. Natl. Acad. Sci. USA 93:3283-3287, 1995; Van Laethem et al., AIDS 15:553-561, 2001). […] HIV-1/L6S/PMEA is the clinical isolate HIV-1/L6S that has been isolated after culturing the virus for 11 passages in the presence of increasing concentrations of PMEA (adefovir).
(§2) In vitro antiviral assays. The activity against HIV-1- and HIV-2-induced cytopathicity was examined in MT-4 cell cultures at day 5 post infection and based on the determination of cell viability by trypan blue dye staining or in CEM cell cultures at day 4 to 5 post infection and based on the microscopical examination of virus-induced giant cell formation. HIV-1 and HIV-2 were added at 100 CCID50 to the cell cultures.

HIV-1(Ba-L) = assay: HIV-1(BaL) p24 antigen production in human primary macrophages (M/M); settings: Table 2; for EC50: Human immunodeficiency virus 1, BAL, Primary macrophage
From the text: Viruses. The origins of MSV, HIV type 1 (HIV-1) (strain IIIB and Ba-L), HIV-2 (strain ROD) and FIV (strain Petaluma) have been described previously (Balzarini et al., AIDS 5: 21-28, 1991; De Clercq et al., Proc. Soc. Exp. Biol. Med. 137:590-594, 1971; Egberink et al., Proc. Natl. Acad. Sci. 87:3087-3091, 1990; Hartmann et al., Antiviral Chem. Chemother. 5:13-19, 1994; Popovic et al., Science 224:497-500, 1984). HIV-1(IIIB) and HIV-2(ROD) stocks were obtained from supernatants of virus-infected MT-4 cell cultures. HIV-1BaL was expanded in human primary M/M, whose supernatants were collected, filtered and stored at −80° C. before use. Characteristics of viral stocks used for this study were 2.1×10^8 HIV-RNA genomes/ml (corresponding to 35 ng of p24 antigen) and 5,000 tissue culture infectious doses 50% per ml (TCID50/ml) as assessed by virus titration in other primary M/M cultures. The isolation and characterization of the clinical HIV-1 isolates L1S, L6S and L6S/PMEA has been reported (Thormar et al., Proc. Natl. Acad. Sci. USA 93:3283-3287, 1995; Van Laethem et al., AIDS 15:553-561, 2001). The HIV-1/L1S clinical isolate was derived from a patient not treated with NRTIs (nucleoside reverse transcriptase inhibitors) or ANPs and cultured without the selective pressure of any drugs. Therefore, it contained no obvious mutations that are characteristic for NRTI- or ANP-treated patients. HIV-1/L6S is a clinical isolate from a drug-treated individual cultured without the selective pressure of any drugs. As is characteristic for NRTI-treated patients, it contained S68G, K70T, V75I, F77L, F116Y and Q151M mutations in its RT. HIV-1/L6S/PMEA is the clinical isolate HIV-1/L6S that has been isolated after culturing the virus for 11 passages in the presence of increasing concentrations of PMEA (adefovir). It gained, in addition to the mutations mentioned for HIV-1/L6S, also the PMEA-characteristic K65R mutation in its reverse transcriptase (RT).
Human primary macrophages (M/M) were prepared and purified as follows. Peripheral blood mononuclear cells (PBMC), obtained from healthy HIV-1-negative donors were separated over a Ficoll gradient and seeded in 48-well plates at 1.8×10^6 cells/well in 1 ml of RPMI 1640 containing 20% heat-inactivated, endotoxin- and mycoplasma-free fetal bovine serum (Hyclone Laboratories, Inc., Logan, Utah), 4 mM L-glutamine (Life Technologies), 50 U/ml penicillin and 50 μg/ml streptomycin (Life Technologies) (hereinafter referred to as complete medium). Five days after plating and culturing the PBMC at 37° C. in a humidified atmosphere enriched with 5% CO2-adherent cells were carefully removed with repeated washings with warmed RPMI-1640, leaving a monolayer of adherent cells which were finally incubated in complete medium. […]

[1] = MT-4 cell toxicity (trypan blue exclusion); settings: human, reduction of cell viability, Table 2
Method: Cytostatic and antimetabolic effect of acyclic nucleoside phosphonates in vitro. The assays to examine the inhibition of CEM cell growth by the test compounds have been described previously (Balzarini et al., AIDS 5:21-28, 1991). The 50% cytostatic concentration (CC50) was defined as the concentration of compound that reduced the number of living cells by 50% . To measure MT-4 cell toxicity of the test compounds, 5×10^4 MT-4 cells were incubated in the wells of 96-well microplates in the presence or absence of different concentrations of the test compounds for 5 days at 37° C. The CC50 was then calculated from the number of living cells counted under a microscope by the trypan blue exclusion method.

HIV-2(ROD) = assay: HIV-2(ROD)-induced cytopathicity in CEM cell cultures; settings: for EC50: Human immunodeficiency virus 2, CCRF-CEM, read-out: EC50 HIV-2 (ROD) (CEM)
From the text: as §1, §2

HIV-1/L6S/PMEA = settings: measured against the laboratory HIV-1/IIIB strain in CEM cell cultures
From the text: as §1, §2

HIV-1/L1S = settings: measured against the laboratory HIV-1/IIIB strain in CEM cell cultures
From the text: as §1, §2

HIV-1/L6S = settings: measured against the laboratory HIV-1/IIIB strain in CEM cell cultures
From the text: as §1, §2

SMILES	EC50 (HIV-1(IIIB)) [µg/mL]	EC50 (HIV-1(Ba-L)) [ng/mL]	CC50 at 5 days ([1]; MT-4 cells) [µg/mL]	EC50 (HIV-2(ROD)) [µg/mL]	-Fold Resistance HIV-1/L6S/PMEA (HIV-1/L6S/PMEA) [fold]	-Fold Resistance HIV-1/L1S (HIV-1/L1S) [fold]	-Fold Resistance HIV-1/L6S (HIV-1/L6S) [fold]	EC50 HIV-1 (IIIB) (MT-4) (HIV-1(IIIB)) [µg/mL]	EC50 HIV-1 (BaL) (M/M) (HIV-1(Ba-L)) [ng/mL]	EC50 HIV-2 (ROD) (CEM) (HIV-2(ROD); giant cell formation, Table 2) [µg/mL]	CC50 at 5 days [1] [µg/mL]	EC50 (HIV-2(ROD); giant cell formation, Table 2) [µg/mL]
Nc1cc(OCCOCP(=O)(O)O)nc(N)n1 [Compound 1, 2,4-diamino-6-[2-(phosphonomethoxy)ethoxy]pyrimidine]	0.34 ± 0.03 (≈ 1.29 µM)	2 ± 1 (≈ 0.00757 µM)	46 ± 7.4 (≈ 174 µM)	0.66 ± 0.19 (≈ 2.5 µM)	3.6	0.8	1.5					
C[C@H](Cn1cnc2c(N)ncnc21)OCP(=O)(O)O [(R)-PMPA, (R)-9-[(2-phosphonomethoxy)-propyl]adenine, reference compound]					54	2.3	11	0.46 ± 0.006 (≈ 1.6 µM)	3 ± 1 (≈ 0.0104 µM)	0.43 ± 0.41 (≈ 1.5 µM)		
Nc1ncnc2c1ncn2CCOCP(=O)(O)O [PMEA, 9-[(2-phosphono-methoxy)ethyl]adenine, reference compound]	1.3 ± 1.1 (≈ 4.76 µM)	6 (≈ 0.022 µM)			7.3	2.0	2.7				28 ± 12 (≈ 102 µM)	1.9 ± 1.1 (≈ 6.95 µM)
C[C@H](COc1cc(N)nc(N)n1)OCP(=O)(O)O [Compound 11, 2,4-diamino-6-(R)-[2-(phosphonomethoxy)propoxy]pyrimidine]					30	1.9	3.5	3.0 ± 0.4 (≈ 10.8 µM)	5 ± 0 (≈ 0.018 µM)	1.3 ± 0.4 (≈ 4.67 µM)		
Nc1cc(SCCOCP(=O)(O)O)nc(N)n1 [Compound 2, 2,4-diamino-6-{[2-(phosphonomethoxy)ethyl]-sulfanyl}pyrimidine]	2.5 ± 0.3 (≈ 8.92 µM)		≥ 100	3 ± 1.4 (≈ 10.7 µM)	14	2.1	1.4					
